In experiment [1] the test system is synthesis of LTB4 by rat glycogen-elicited polymorphonuclear leukocytes (PMN). Kind of experiment: inhibition of LTB4 synthesis by rat glycogen-elicited PMN (Example 72). The settings on record: Leukocyte; for inhibition at 10000 µM: at 10 mM, negative number denotes potentiation; for inhibition at 500 µM: at 0.5 mM. The format is cell-based, rat (female Wistar). From the text: This is especially true with respect to 5,12-diHETE, which is also denoted as LTB4 lsee Ford-Hitchinson, J. Roy. Soc. Med., 74, 831 (1981)]. Compounds which inhibit the PLA2 -mediated release of arachidonic acid thereby effectively prevent the oxidation of arachidonic acid to the various leukotriene products via the lipoxygenase cascade. Accordingly, the specificity of action of PLA2 inhibitors can be determined by the activity of test compounds in this assay, which measures the ability of compounds to inhibit the synthesis of LTB4 by rat glycogen-elicited polymorphonuclear leukocytes (PMN) in the presence of exogenous substrate.
The assay is carded out as follows:
(§1) Rat polymorphonuclear leukocytes (PMNs) are obtained from female Wistar rats (150-200 g) which receive an injection of 6% glycogen (10 ml i.p.). Rats are sacrificed 18-24 hours post injection by CO2 asphyxiation and the elicited cells are harvested by peritoneal lavage using physiological saline (0.9% NaC1). The exudate is centrifuged at 400 ×g for 10 minutes. The supernatant fluid is discarded and the cell pellet is resuspended to a concentration of 2.0×10^7 cells/mL in HBSS containing Ca^++ and Mg^++ and 10 mM L-cysteine.
(§2) To 1 mL aliquots of cell suspension, test drugs or vehicle are added, then preincubated at 37° C. for 10 minutes. A23187 (1 mM), [^3 H]-AA (3.0 mCi/mL) and unlabeled AA (1 mM) are then added and the samples are further incubated for 10 minutes. The reaction is terminated by centrifugation and pelleting cells. Supernatants are then analyzed by HPLC analysis on a 15 cm×4.6 mm ID supelcosil LC-18 (Supelco)(3M) column, using a two solvent system at a flow rate of 1.4 mL total flow as follows:
Gradient: (system is equilibrated with Solvent A)
Percent solvent changes are accomplished in a linear fashion.
Injections: […] of each supernatant is injected directly onto column and ^3 H arachidonic acid metabolites are monitored using an on-line radioactivity detector (Ramona, IN/U S, Fairfield, NJ).
Standards: 10^4 -2.0×10^4 dpm of eicosanoids of interest are injected in […] EtOH cocktail.
Co-chromatography with standard [^3 H] leukotriene B4 (LTB4) in medium of stimulated PMN exposed to drug is compared to that found in medium of stimulated cells exposed to no drug, generating percent inhibition.
Results are expressed as percent inhibition at a given compound dose or as an IC50 value.

Experiment [2] has as its system cyclooxygenase (PGE2 synthesis) in rat polymorphonuclear leukocytes (PMN). Kind of experiment: inhibition of PGE2 synthesis (cyclooxygenase) by rat glycogen-elicited PMN (Example 73). Type of experiment: cell-based, rat (female Wistar). The settings on record: Leukocyte, * (negative) denotes a potentiation; for inhibition at 10000 µM: at 10 mM, read-out: % Inhibition (PGE2 synthesis); for inhibition at 500 µM: at 0.5 mM. Here is the method: as §1, §2
In this assay, the procedure of Example 72 is carried out as described. However, in order to determine cyclooxygenase activity, the samples are cochromatographed with authentic reference [^3 H]-PGE2.
The results be calculated as in Example 72 and presented below: […]

The next experiment has as its system carrageenan paw edema. Kind of experiment: rat carrageenan paw edema assay (Example 78). Type of experiment: in vivo, rat (male Sprague-Dawley). How it is done:
The compounds of the invention are further tested in the rat carrageenan paw edema assay to determine their ability to inhibit the acute inflammatory response.
This assay is carried out as follows: 140-180 g Male Sprague-Dawley rats, in groups of 6 animals are injected subcutaneously in the right paw with 0.1 mL of 1% carrageenan at zero time. Mercury plethysmographic readings (mL) of the paw are made at zero time and 3 hours later. Test compounds are suspended or dissolved in 0.5% methylcellulose and given perorally 1 hour prior to carrageenan administration.
The increase in paw volume (edema in mL) produced by the carrageenan is measured. Paw edema is calculated (3 hour volume minus zero time volume), and percent inhibition of edema is determined. Unpaired Student's t-test is used to determine statistical significance.
A general note: In the carrageenan paw model, swelling and tenderness develop within hours.

Experiment [3] addresses T1, LTD4 (isolated guinea pig trachea) (Cavia porcellus, UniProt Q2NNR5).
T1 sequence (Q2NNR5 1-340): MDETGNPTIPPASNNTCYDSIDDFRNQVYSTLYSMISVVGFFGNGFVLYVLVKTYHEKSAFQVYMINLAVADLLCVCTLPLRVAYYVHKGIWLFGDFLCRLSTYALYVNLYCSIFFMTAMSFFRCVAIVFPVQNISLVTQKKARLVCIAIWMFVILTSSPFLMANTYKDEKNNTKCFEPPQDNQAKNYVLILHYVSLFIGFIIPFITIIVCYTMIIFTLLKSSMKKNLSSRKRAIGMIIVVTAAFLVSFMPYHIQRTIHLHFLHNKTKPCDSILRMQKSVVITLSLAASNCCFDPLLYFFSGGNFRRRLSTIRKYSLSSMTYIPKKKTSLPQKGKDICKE
Kind of experiment: in vitro isolated guinea pig trachea assay, LTD4 antagonism (Example 77). Also on record: from tissue; host or cells: isolated trachea rings of male Hartley guinea pigs; species or system guinea pig (male Hartley). The settings on record: Table VII; 1 × 10^-5 M. How it is done:
The LTD4 antagonist activity of the compounds of the invention is assessed in the in vitro isolated guinea pig trachea assay. This assay is carried out as follows: Male Hartley guinea pigs (350-400 g) are euthanized by a blow to the head, the neck is opened and the trachea removed. The trachea is maintained in aerated physiological salt solution, cleared of connective tissue and fat and cut into tings approximately 2 nxn in width (usually containing two cartilaginous segments per ting). Two pieces of silk suture are then passed through the lumen of the tracheal ring and are tied around the cartilage, one on each side of the trachealis muscle. The tracheal ting is suspended between a glass hook and a force […] transducer in a 10 mL organ bath for measurement of isometric tension. […] The tracheal […] maintained at 2 g resting tension and equilibrated for 45 minutes (with frequent washing and readjustment of resting tension). The tracheal rings are first contracted by the addition of carbachol (3×10^-6 M), to determine tissue responsiveness and establish a reference contraction. On attainment of a stable level of contraction (approximately 30 minutes), the tissues are washed several times until baseline tension has been restored and then re-equilibrated for 30 minutes. The tissues are then incubated for 45 minutes with a test antagonist (either 1×10^-6 M or 1×10^-5 M) or […] of an appropriate solvent control (control, non-treated). One tissue in each group serves as the control. Twenty minutes prior to the construction of the LTD4 cumulative concentration-response curve, L-[…]×10^-2 M final bath concentration) is added to inhibit bioconversion of LTD4 to LTE4. Only one LTD4 concentration-response curve is constructed in each tissue. All responses to LTD4 in an individual tissue are measured as a percentage of the reference contraction of that tissue to carbachol. LTD4 antagonist activity is determined by comparison of the concentration response curves of LTD4 in the presence and absence of antagonist. Assessment of the relative rightward shift of the antagonist treated curve relative to the solvent (control) treated tissue is calculated as a concentration ratio (Eq. A) and used in subsequent calculations to derive an antagonist pKB value (Eqs B and C). […] If a compound is found to be active and/or depress the maximal response to LTD4, then a range of concentrations of the test compound should be used generating multiple concentration ratios which would then be used to perform a Schild analysis, and determination of a pA2 value where appropriate.

Experiment [4] addresses T2, human synovial fluid PLA2 (Homo sapiens, UniProt P14555).
T2 sequence (P14555 21-144): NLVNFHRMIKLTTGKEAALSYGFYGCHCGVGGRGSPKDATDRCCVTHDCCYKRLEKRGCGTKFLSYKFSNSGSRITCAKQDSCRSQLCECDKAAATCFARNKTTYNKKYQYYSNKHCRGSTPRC
Kind of experiment: in vitro isolated phospholipase A2 assay, human synovial fluid PLA2 (Example 74). The settings on record: for inhibition: read-out: % Inhibition, HSF (human synovial fluid). The format is biochemical. Also on record: inhibition / % Inhibition, HSF (human synovial fluid): dose or concentration left out as unconfirmed. In short, it runs like this:
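Human synovial fluid PLA2 (purified) acts on ³H-arachidonate-labelled E. coli substrate, 10 minutes at 37° C with shaking; stopped with tetrahydrofuran. Released arachidonic acid is isolated on NH2 columns, eluted with tetrahydrofuran/2% acetic acid and quantitated by β-counting against a total-counts sample.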

Experiment [5] has as its system 5-lipoxygenase in human whole blood. Kind of experiment: inhibition of 5-lipoxygenase in human whole blood (Example 79). Type of experiment: cell-based. The settings on record: for % Inhibition of LTB4: 25 μM. In a few lines: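 Donor whole blood pre-incubated 10 min at 37° C with compound (0.1% DMSO final), then stimulated with […] calcium ionophore A23187 for 20 min at 37° C; stopped on ice with EGTA. Plasma LTB4, TxB2 and PGE2 measured by RIA or ELISA as ng/10^6 neutrophils; effects expressed as percent change from control.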

For experiment [6], the system named is paw edema induced by PLA2 from the diamond back cotton mouth snake (A. piscivorus piscivorus). Kind of experiment: in vivo PLA2 murine paw edema assay (Example 75). More on the design: species or system mouse (male CD-1). To be noted: 30 mg/kg i.p.; 30 min.
Another experiment concerns the target T3, human platelet PLA2 (Homo sapiens, UniProt P14555).
T3 construct: Semi-purified human platelet acid extract PLA2; from tissue; host or cells: human platelets (semi-purified acid extract)
T3 sequence (P14555 21-144): T2 sequence (P14555 21-144)
Kind of experiment: in vitro isolated phospholipase A2 assay, human platelet PLA2 (Example 74). The format is biochemical. Also on record: dose or concentration left out as unconfirmed. The settings on record: read-out: % Inhibition, HP (human platelet). In a few lines: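 Semi-purified human platelet acid-extract PLA2 (pH 4.5 acetate) was incubated with ³H-arachidonate-labelled E. coli substrate for 10 min at 37° C. The reaction was terminated with tetrahydrofuran. Released arachidonic acid was isolated on NH2 columns and quantified by β-counting against total counts.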

We go through 7 compounds from patent US5420289A, “Substituted indole-, indene-, pyranoindole- and tetrahydrocarbazole-alkanoic acid derivatives as inhibitors of PLA2 and lipoxygenase” (American Home Products Corporation, priority 1993, dated 1995).

Molecules are shown by their SMILES. Structures can show the parent of a compound that is named as a salt.

For orientation: inhibition means the relative decrease from the control value, in per cent. What is called Kb is the equilibrium dissociation constant of an antagonist, usually derived from a functional assay. Usually ED50 stands for the dose at which the effect has come halfway, by size or by number of responders. The term IC50 denotes the concentration that inhibits the measured activity by half.

`CC1(C)OCCc2c1[nH]c1ccc(OCc3ccc4ccccc4n3)cc21` [Example 14, 1,3,4,9-Tetrahydro-1,1-dimethyl-6-(2-quinolinylmethoxy)pyrano[3,4-b]indole]: the inhibition at 10000 µM in experiment [1] was 91%; in experiment [2] it was -48%. Moreover, the “% Inhibition 50 mg/kg (peroral)” value in the experiment with carrageenan paw edema (50 mg/kg peroral, 3 hours after carrageenan) worked out at 27%.

For the compound `CCC1(CC(=O)O)OCCc2c1[nH]c1ccc(OCc3ccc4ccccc4n3)cc21` (stereo not drawn) [Example 9, 1-Ethyl-1,3,4,9-tetrahydro-6-(quinolinylmethoxy)pyrano[3,4-b]indole-1-acetic acid], the inhibition at 10000 µM in experiment [1] amounted to 96%; in experiment [2], 75%. In addition, the Kb in experiment [3] was 0.55 µM.

Take `Cc1c(CC(=O)O)c2cc(OCc3ccc4ccccc4n3)ccc2n1Cc1ccc(Cl)cc1` [Example 43, 1-[(4-Chlorophenyl)methyl]-2-methyl-5-(2-quinolinylmethoxy)-1H-indole-acetic acid tromethamine salt hemi-ethanolate]: the Kb in experiment [3] was 1 µM.

On to `CCc1cccc2c3c([nH]c12)C(CC)(CC(=O)O)OCC3` (stereo not drawn) [etodolac, reference compound], for which the figures for the inhibition at 500 µM in experiment [1] and in experiment [2] were 21% and 100%, respectively. Besides, the ED50 with carrageenan paw edema (Rattus norvegicus, 3 h, oral, Table VIII) is 23 mg/kg.

Take `CCOC(=O)Cc1c(C)n(Cc2ccccc2)c2ccc(OCc3nc4ccccc4s3)cc12` [Example 50, 5-(2-Benzothiazolylmethoxy)-1-(phenylmethyl)-2-methyl-1H-indole-3-acetic acid ethyl ester]: the inhibition in experiment [4] was 2%. This compound also gave a Kb in experiment [3] of 3.98 µM. Moreover, in experiment [5], the “% Inhibition of LTB4” value is listed as 95%.

On to `Cc1c(CC(=O)O)c2cc(OCc3ccc4ccccc4n3)ccc2n1Cc1ccc2ccccc2n1` [Example 18, 2-Methyl-5-(2-quinolinylmethoxy)-1,2-(quinolinylmethy)-1H-indole-3-acetic acid], for which the “% Change in Edema” value in experiment [6] is reported as -19%. Besides, in experiment [4] (Table III, read-out: IC50 HSF (human synovial fluid)), the IC50 is 27 µM. The inhibition was determined as 30% in experiment [4] and 47% at human platelet PLA2. Also, the inhibition at 500 µM in experiment [1] is 88%; in experiment [2], -31%. The Kb in experiment [3] is 1.41 µM.

In the case of `CCN(CC)C(=O)Cc1c(C)n(Cc2ccccc2)c2ccc(OCc3nc4ccccc4s3)cc12` [Example 52, 5-(2-Benzothiazolylmethoxy)-N,N-diethyl-1-(phenylmethyl)-2-methyl-1H-indole-3-acetamide], the inhibition in experiment [4] was determined as 12%. Besides, the Kb in experiment [3] is 2.51 µM. The “% Inhibition of LTB4” value in experiment [5] stood at 68%. In experiment [5] (human whole blood, read-out: IC50 (inhibition of LTB4)), the IC50 is 19.9 µM.
